Patent US20040152670A1, “Novel aminoindanes” (priority 1999, published 2004)
Where two headings read alike, the source gives them in different places.

What was measured:
[1] = test system: Group II/III metabotropic glutamate receptors (mGluRs); assay: Cyclic AMP assay in rat cortical slices (forskolin-induced cyclic AMP accumulation); type: cell-based, Sprague Dawley rat; details: for Group II/III Agonist: inhibits forskolin-induced cyclic AMP accumulation; for Group II/III Agonist / Group II/III Antagonist: Yes/No; for Group II/III Antagonist: inhibits the glutamate-caused decrease in forskolin-induced cyclic AMP accumulation
Method: The assay of cyclic AMP formation can be performed as described previously (Tovey el al., Clinica Chimica Acta, 56, 221-234, 1974). The assay can be modelled on the cyclic AMP assay kit available from Amersham, which in turn, is based on the assay created by Tovey el al. Briefly, samples are prepared from Sprague Dawley rat (225-250 g) cortical slices. Slices are incubated with the drug, and then challenged with forskolin to induce cyclic AMP release. Following termination of the reaction by boiling, the slices are homogenized and centrifuged. Samples of supernatant are then incubated for 2-3 hours with a known quantity of [^3H]cAMP and a binding protein. When the incubation is complete, the bound cyclic AMP is separated from the free cyclic AMP by centrifugation with charcoal. The resulting supernatant (containing free cyclic AMP) is then analyzed by liquid scintillation counting. The amount of unbound cyclic AMP can be calculated from a standard curve previously determined with various samples of free cyclic AMP. Group II/III metabotropic glutamate receptors (mGluRs) are negatively coupled to adenylate cyclase, and agonists of these receptors lead to a decrease in intracellular cyclic AMP accumulation. The assay has been modeled on the cyclic AMP assay kit available from Amersham. This kit, in turn, is based on the assay created by Tovey et al. (1974). Briefly, the samples were prepared from Sprague Dawley rat (225-250 g) cortical slices. Slices were incubated with the test compound (drug), and then challenged with forskolin to induce cyclic AMP release. Following termination of the reaction by boiling, the slices were homogenized and centrifuged. Samples of supernatant were then incubated for 2-3 hours with a known quantity of [^3H]cAMP and a binding protein. When the incubation was complete, the bound cyclic AMP was separated from the free cyclic AMP by centrifugation with charcoal. The resulting supernatant (containing free cyclic AMP) was then analyzed by liquid scintillation counting. The amount of unbound cyclic AMP was calculated from a standard curve previously determined with various samples of free cyclic AMP. If the drugs tested inhibit forskolin-induced cyclic AMP accumulation, they are considered to be Group II/III agonists. Conversely, if they inhibit the decrease in forskolin-induced cyclic AMP accumulation caused by glutamate, they are considered to be Group II/III antagonists.

[2] = test system: Group I metabotropic glutamate receptors (mGluRs); assay: Phosphatidylinositol assay in neonatal rat tissue slices (inositol phosphate accumulation); type: cell-based, Sprague Dawley rat; details: for Group I Agonist: increase in intracellular free inositol phosphate accumulation; for Group I Agonist / Group I Antagonist: Yes/No; for Group I Antagonist: inhibits the inositol phosphate accumulation induced by ACPD; for EC50: inhibition of the inositol phosphate accumulation induced by ACPD, read-out: Group I Antagonist EC50
Method: Briefly, cross-chopped slices are prepared from neonatal Sprague Dawley rat tissue (age: p7-p14). The slices are pre-labelled with [3H] myo-inositol. Following pre-labelling, the slices are incubated with the test drugs and standard (known Group I agonists i.e. ACPD) for a period of 45 minutes. The incubation is terminated by the addition of chloroform/methanol/HCl (100:200:2). The resulting mixture is separated into two phases by the addition of chloroform and distilled water. The aqueous fraction is applied to ion exchange columns, and inositol phosphates are eluted using 800 mM Ammonium Formate/100 mM Formic Acid. The eluent is then analyzed using liquid scintillation counting. The amount of inositol phosphate accumulation is expressed as a percentage of that induced by ACPD. Group I metabotropic glutamate receptors (mGluRs) are positively coupled on inositol phosphate metabolism. Agonists at these receptors lead to an increase in intracellular free inositol phosphates, while antagonists inhibit the increase in intracellular free inositol phosphate induced by standard agonists (i.e. ACPD). Cross-chopped slices were prepared from neonatal Sprague Dawley rat tissue (age: p7-p14). The slices were pre-labelled with [^3H] myo-inositol. Following pre-labelling, the slices were incubated with the test compounds and standard (known Group I agonists i.e. ACPD) for a period of 45 minutes. The incubation was terminated by the addition of chloroform/methanol/HCl (100:200:2). The resulting mixture was separated into two phases by the addition of chloroform and distilled water. The aqueous fraction was applied to ion exchange columns, and inositol phosphates were eluted using 800 mM Ammonium Formate/100 mM Formic Acid. The eluent was then analyzed using liquid scintillation counting. The amount of inositol phosphate accumulation was expressed as a percentage of that induced by ACPD. If the drugs cause an increase in intracellular free inositol phosphate accumulation, they are considered to be Group I agonists. […]

mGluR1α receptor = biological target: T1, mGluR1α receptor (Rattus norvegicus, UniProt P23385); assay: PI hydrolysis antagonist assay in Chinese hamster ovary cell lines expressing cloned mGluR1α; type: cell-based; details: CHO cells expressing cloned mGluR1α; compound at 5 mM; 10 µM (L)-glutamic acid; FIG. 1
T1 construct: expressed in transfected cells; host or cells: Chinese hamster ovary (CHO) cells
T1 sequence (P23385 19-1199): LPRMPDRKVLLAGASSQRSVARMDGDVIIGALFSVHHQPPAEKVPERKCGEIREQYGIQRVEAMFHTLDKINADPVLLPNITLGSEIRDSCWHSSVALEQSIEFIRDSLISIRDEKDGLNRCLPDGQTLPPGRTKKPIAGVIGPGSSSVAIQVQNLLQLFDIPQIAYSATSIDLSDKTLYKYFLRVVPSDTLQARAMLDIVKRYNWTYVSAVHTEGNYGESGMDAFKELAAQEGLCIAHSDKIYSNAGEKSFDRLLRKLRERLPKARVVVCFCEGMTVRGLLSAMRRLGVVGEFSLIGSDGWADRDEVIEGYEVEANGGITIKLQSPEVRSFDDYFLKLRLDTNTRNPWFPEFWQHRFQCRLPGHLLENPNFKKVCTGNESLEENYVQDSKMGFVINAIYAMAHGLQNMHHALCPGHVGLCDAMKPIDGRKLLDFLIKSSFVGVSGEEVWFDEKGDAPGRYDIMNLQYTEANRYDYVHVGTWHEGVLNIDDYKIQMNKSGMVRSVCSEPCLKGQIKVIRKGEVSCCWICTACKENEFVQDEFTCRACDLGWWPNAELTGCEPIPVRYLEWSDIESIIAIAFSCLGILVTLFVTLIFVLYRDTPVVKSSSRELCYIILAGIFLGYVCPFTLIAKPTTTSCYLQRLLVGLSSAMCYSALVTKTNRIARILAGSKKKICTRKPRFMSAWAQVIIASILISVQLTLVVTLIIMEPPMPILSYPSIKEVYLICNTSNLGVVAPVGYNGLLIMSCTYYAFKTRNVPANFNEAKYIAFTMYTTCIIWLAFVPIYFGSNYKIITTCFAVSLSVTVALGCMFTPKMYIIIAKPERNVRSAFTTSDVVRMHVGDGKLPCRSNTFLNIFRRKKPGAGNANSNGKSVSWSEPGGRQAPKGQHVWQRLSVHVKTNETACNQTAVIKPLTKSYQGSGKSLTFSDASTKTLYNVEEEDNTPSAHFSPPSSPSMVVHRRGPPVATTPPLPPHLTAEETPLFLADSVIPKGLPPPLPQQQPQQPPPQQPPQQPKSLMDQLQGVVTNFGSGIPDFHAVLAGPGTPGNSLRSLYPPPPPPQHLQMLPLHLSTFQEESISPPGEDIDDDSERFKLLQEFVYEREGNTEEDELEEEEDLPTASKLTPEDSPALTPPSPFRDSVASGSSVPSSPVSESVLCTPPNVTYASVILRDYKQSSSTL
Method: The Chinese hamster ovary cell lines expressing mGluR1α, mGlu R2 and mGluR4αreceptors have been described previously (Amarori and Nakanishi, Neuron 8, 757-765, 1992; Tanabe et al., Neuron 8, 169-179, 1992, and J. Neurochem. 63, 2038-2047, 1993). They are maintained at 37° C. in a humidified 5% CO2 incubator in Dubecco's Modified Eagle Medium (DMEM) containing a reduced concentration of(S)-glutamine (2 mM) and are supplemented with 1% proline, penicillin (100 U/mL), streptomycin ([…]) and 10% dialyzed fetal calf serum (all GIBCO, Paisley). Two days before assay 1.8×10^6 cells are evenly distributed into the wells of 24 well plates.
Phosphatidylinositol (PI) hydrolysis can be measured as described previously (Hayashi et al., Nature 366, 687-690,1992, and J. Neuroscience 14, 3370-3377, 1994). Briefly, the cells are labeled with [^3H]inositol (2 μCi/mL) 24 h prior to the assay. For agonist assays, the cells are incubated with test compound dissolved in phosphate-buffered saline (PBS)-LiC] for 20 min, and agonist activity is determined from the level of ^3H-labeled mono-, bis- and tris-inositol phosphates generated, as measured following ion-exchange chromatography, compared with the level generated in the absence of the test compound. […] The antagonist activity is then determined as the inhibitory effect of the (S)-Glu mediated response. […]

[3] = inhibition of the glutamate-caused decrease in forskolin-induced cyclic AMP accumulation, read-out: Group II/III Antagonist EC50
[4] = inhibition of forskolin-induced cyclic AMP accumulation, read-out: Group II/III Agonist EC50

Structure (SMILES)	EC50 [1, 3] [µM]	Group II/III Agonist [1]	Group II/III Antagonist [1]	Group I Agonist [2]	Group I Antagonist [2]	EC50 [1, 4] [µM]	EC50 [2] [µM]	antagonist activity: block of the increase in PI hydrolysis by (L)-glutamic acid at the mGluR1α receptor (mGluR1α receptor)
NC(C(=O)O)C1CC(C(=O)O)c2ccccc21 (centres unmarked) [Compound 23, 1-[2-amino]-3-carboxyindaneacetic acid]	0.61	No	Yes	No	No			
NC(C(=O)O)C1c2ccccc2CC1CC(=O)O (centres unmarked) [Compound 18, 1-[2-amino]-2-indanediacetic acid]	0.026	Yes	Yes	No	Yes	0.46	14	
N[C@]1(C(=O)O)C[C@@H](CC(=O)O)c2ccccc21 (relative stereo) [Compound 13, Trans-1-amino-1-carboxyindane-3-acetic acid]						0.99	0.0013	
N[C@@]1(C(=O)O)C[C@H](C(=O)O)c2ccccc21 (stereo in doubt) [Compound 4b, Cis-1-aminoindane-1,3-dicarboxylic acid]						2.1		
N[C@]1(C(=O)O)C[C@H](C(=O)O)c2ccccc21 [Compound 4a, Trans-1-aminoaindane-1,3-dicarboxylic acid]		No	No	No	Yes		0.48	effectively blocked
N[C@]1(C(=O)O)c2ccccc2C[C@H]1CC(=O)O (relative stereo) [Compound 9, Trans-1-amino-1-carboxyindane-2-acetic acid]	0.034						1.1	
